These results are taken from ChEMBL document CHEMBL1144966, “Both 5-arylidene-2-thioxodihydropyrimidine-4,6(1H,5H)-diones and 3-thioxo-2,3-dihydro-1H-imidazo[1,5-a]indol-1-ones are light-dependent tumor necrosis factor-alpha antagonists” (Bioorg Med Chem Lett, 2003).

The target of one assay is T1, Tumor necrosis factor receptor superfamily member 1A (Homo sapiens) (UniProt P19438).
T1 sequence (whole entry): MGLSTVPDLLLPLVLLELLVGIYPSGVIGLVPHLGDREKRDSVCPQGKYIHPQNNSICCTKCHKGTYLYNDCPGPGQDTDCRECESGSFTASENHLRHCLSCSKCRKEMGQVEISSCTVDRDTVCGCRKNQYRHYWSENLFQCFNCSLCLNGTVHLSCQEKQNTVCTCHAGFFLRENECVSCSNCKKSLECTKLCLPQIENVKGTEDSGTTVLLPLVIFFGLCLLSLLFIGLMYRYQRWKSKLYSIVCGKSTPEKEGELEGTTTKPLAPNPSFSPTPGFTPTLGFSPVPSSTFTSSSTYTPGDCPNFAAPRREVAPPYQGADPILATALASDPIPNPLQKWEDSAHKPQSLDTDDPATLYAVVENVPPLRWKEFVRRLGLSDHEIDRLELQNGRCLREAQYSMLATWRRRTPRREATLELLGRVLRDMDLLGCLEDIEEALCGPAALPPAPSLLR
The experiment in a line: Compound was tested for inhibition of TNF-alpha binding to TNFRc1 at a concentration of 10 uM.
`C=CCN1C(=O)c2c(C)c3c(OC)cc(OC)cc3n2/C1=N/C#N` gave an inhibition of 19%. The same measure, in the same setting: the result for `CCN1C(=O)C(=Cc2ccc(-c3cc(C(F)(F)F)nn3C)s2)C(=O)N(CC)C1=S` reads 33%; that for `C=CCN1C(=O)c2cc3cc(OC)c(OC)cc3n2C1=S`, 53%.

With `CCN1C(=O)/C(=C/c2c[nH]c3ccccc23)SC1=S`, the inhibition turned out to be 40%. For the molecule `CCN1C(=O)c2cc3ccccc3n2C1=S`, the inhibition came to 27%. Still for that read-out and setting: as for `C=CCN1C(=O)c2cc3cc(OCc4ccccc4)ccc3n2C1=S`, the figure is 46%.

`CCN1C(=O)C(=Cc2cnc3ccccc3c2)C(=O)N(CC)C1=S` gave an inhibition of 0%. Consider `CCN1C(=O)C(=Cc2cc(Br)cs2)C(=O)N(CC)C1=S`, for which the inhibition was determined as 2%. `CCN1C(=O)C2Cc3c(OC)cc(OC)cc3N2C1=S` (centres undefined) gave an inhibition of 0%. On the same count and under the same terms, as for `CCN1C(=O)C(=Cc2cn(C(C)=O)c3ccccc23)C(=O)N(CC)C1=S`, the figure is 15%; as for `C=CCN1C(=O)c2c(C)c3c(OC)cc(OC)cc3n2C1=O`, 0%; as for `CCN1C(=O)C(=Cc2ccccn2)C(=O)N(CC)C1=S`, 0%.

The molecule `CCN1C(=O)C(=Cc2ccc3ccccc3n2)C(=O)N(CC)C1=S` yielded an inhibition of 0%.

`COc1cc(OC)c2c(C)c3n(c2c1)C(=O)CN(Cc1ccccc1)C3=O` registered an inhibition of 0%. Regarding `C=CCN1C(=O)c2cc3c(OC)cc(OC)cc3n2C1=O`, the inhibition was 0%. In the case of `CCN1C(=O)C(=Cc2ccncc2)C(=O)N(CC)C1=S`, the inhibition was 0%.

`CCN1C(=O)C(=Cc2cc([N+](=O)[O-])cs2)C(=O)N(CC)C1=S` returned an inhibition of 0%. With `CCN1C(=O)c2cc3c(OC)cc(OCC(=O)O)cc3n2C1=S`, the inhibition was 42%.

Regarding `O=C1C(=Cc2c[nH]c3ccccc23)C(=O)N(c2ccccc2)C(=S)N1c1ccccc1`, the inhibition came to 9%.

`C=CCN1C(=O)c2cc3cc(Cl)ccc3n2C1=S` came in with an inhibition of 17%. In turn, `CCN1C(=O)C(=Cc2cccnc2)C(=O)N(CC)C1=S` displayed an inhibition of 0%.

In another assay the target is T2, Tumor necrosis factor receptor superfamily member 1A (Homo sapiens, UniProt P19438).
T2 sequence (P19438 whole entry): T1 sequence (whole entry)
The assay is described as follows: Inhibition of TNF-alpha binding to TNFRc1.
The molecule `CCN1C(=O)C(=Cc2c[nH]c3ccccc23)C(=O)N(CC)C1=S` gave an IC50 of 1 µM. That is a single-digit micromolar value.

As for `CCN1C(=O)C(=Cc2c[nH]c3ccc([N+](=O)[O-])cc23)C(=O)N(CC)C1=S`, the IC50 was found to be 5.5 µM. In turn, `Cc1ccccc1N1C(=O)C(=Cc2c[nH]c3ccccc23)C(=O)N(c2ccccc2C)C1=S` registered an IC50 of 0.79 µM. Same read-out and setting: the result for `CCN1C(=O)C(=Cc2sccc2C)C(=O)N(CC)C1=S` reads 14.1 µM; that for `CCN1C(=O)C(=Cc2ccc(-c3ccsc3C(=O)OC)o2)C(=O)N(CC)C1=S`, 2.8 µM. `CCN1C(=O)/C(=C/c2ccc(-c3ccsc3C(=O)OC)o2)SC1=S` showed an IC50 of 0.3 µM. Consider `Cc1ccccc1N1C(=O)/C(=C/c2c[nH]c3ccccc23)C(=O)NC1=S`, for which the IC50 is 1.8 µM. `CN1C(=O)C(=Cc2c[nH]c3ccccc23)C(=O)N(C)C1=S` gave an IC50 of 13 µM. Regarding `COC(=O)c1sccc1-c1ccc(C=C2C(=O)N(c3ccccc3)C(=S)N(c3ccccc3)C2=O)o1`, the IC50 turned out to be 40 µM. For the molecule `CCN1C(=O)/C(=C/c2ccc(-c3cc(C(F)(F)F)nn3C)s2)SC1=S`, the IC50 was 0.14 µM. Compared with the last molecule, the IC50 is about 290-fold lower. Same read-out and setting: the result for `COc1cc(OC)c2cc3n(c2c1)C(=S)N(CCCN1CCOCC1)C3=O` reads 0.67 µM; that for `CCN1C(=O)c2cc3c(OC)cc(OCc4ccccn4)cc3n2C1=S`, 0.31 µM. In the case of `C=CCN1C(=O)c2cc3c(OC)c(OC)c(OC)cc3n2C1=S`, the IC50 is 0.78 µM.

`CCN1C(=O)c2cc3c(OC)cc(OCC(=O)OC(C)(C)C)cc3n2C1=S` returned an IC50 of 0.39 µM. For the molecule `CCN1C(=O)C(=Cc2ccc(-c3ccccc3C(F)(F)F)o2)C(=O)N(CC)C1=S`, the IC50 is 2 µM. `C=CCN1C(=O)n2c(c(C)c3c(OC)cc(OC)cc32)C1=S` yielded an IC50 of 0.21 µM. Turning to `CCN1C(=O)C(=Cc2c[nH]c3c(C)cccc23)C(=O)N(CC)C1=S`, the IC50 amounted to 0.6 µM.

In turn, `CCN1C(=O)C(=Cc2cn(C)c3ccccc23)C(=O)N(CC)C1=S` showed an IC50 of 0.13 µM. Same read-out and setting: as for `C=CCN1C(=S)c2c(C)c3c(OC)cc(OC)cc3n2C1=S`, the figure is 0.21 µM; as for `C=CCN1C(=O)c2cc3ccc(OC)cc3n2C1=S`, 1.7 µM. On the same count and under the same terms, as for `C=CCN1C(=O)c2cc3c(OC)cccc3n2C1=S`, the figure is 2.1 µM; as for `CCN1C(=O)C(=Cc2cc3ccccc3[nH]2)C(=O)N(CC)C1=S`, 10.2 µM; as for `CCN1C(=O)c2cc3c(OC)cc(OC)cc3n2C1=S`, 1 µM. For the molecule `CCN1C(=O)C(=Cc2ccc(Br)s2)C(=O)N(CC)C1=S`, the IC50 turned out to be 4.5 µM. Regarding `C=CCN1C(=O)c2cc3c(OC)cc(OC)cc3n2C1=S`, the IC50 is 0.28 µM. Compared with the last molecule, the IC50 is about 16-fold lower. Regarding `COc1cc(OC)c2cc3n(c2c1)C(=S)N(CCc1ccccc1)C3=O`, the IC50 was determined as 1.9 µM. `CCN1C(=O)c2cc3c(OC)cc(OCOC)cc3n2C1=S` came in with a 50% inhibitory concentration (IC50) of 0.28 µM.

On to `C=CCN1C(=O)n2c(cc3c(OC)cc(OC)cc32)C1=S`, for which the IC50 is 0.61 µM.

`C=CCN1C(=O)c2c(C)c3c(OC)cc(OC)cc3n2C1=S` registered an IC50 of 1.1 µM. The molecule `CCN1C(=O)/C(=C/c2ccc(-c3ccccc3C(F)(F)F)o2)SC1=S` gave an IC50 of 0.32 µM. Turning to `CCN1C(=O)C(=Cc2c[nH]c3ccc(OCc4ccccc4)cc23)C(=O)N(CC)C1=S`, the IC50 is 0.4 µM. On the same count and under the same terms, as for `CCN1C(=O)C(=Cc2ccc(C)s2)C(=O)N(CC)C1=S`, the figure is 3.4 µM; as for `O=C1C(=Cc2ccc(-c3ccccc3C(F)(F)F)o2)C(=O)N(c2ccccc2)C(=S)N1c1ccccc1`, 11 µM.

Usually inhibition stands for the relative decrease from the control value, in per cent. A higher inhibition goes with strong suppression. What is called IC50 is the concentration that gives 50% inhibition. A lower IC50 goes with inhibition by little substance.
